Converted amounts (≈) assume the structure as drawn. Some results are limits rather than exact numbers.

In one test the test system is E.coli ATCC25922. The experiment in a line: Antibiotic activity: minimum inhibitory concentration (MIC). The format is cell-based. To be noted: Escherichia coli; strain ATCC25922. Here is the method:
(§1) Antibiotic activities were determined using measurement of minimum inhibitory concentrations by standard procedures referring to the Manual of Commercial Methods in Clinical Microbiology. Ed. Allan L. Truant. ASM Press (2002) and are reported as concentrations (μM).
Take `NC1CC(O)C(CNC(=O)[C@@H](N)CC(=O)O)OC1OC1C(N)CC(N)C(OC2OC(CO)C(O)C(N)C2O)C1O` (stereo partly drawn) [Compound 33]: the MIC is more than 32 µM.

Another test relates to P.aeruginosa ATCC27853. The description is as above. The format is cell-based. To be noted: Pseudomonas aeruginosa; strain ATCC27853. Here is the method:
as §1
In the case of `NCC[C@H](O)C(=O)N[C@@H]1C[C@H](N)[C@@H](O[C@H]2O[C@H](CN)[C@@H](O)[C@H](O)[C@H]2O)[C@H](O)[C@H]1O[C@H]1O[C@H](CO)[C@@H](O)[C@H](N)[C@H]1O` [Amikacin, reference compound], 7.5 µM (≈ 4.39 µg/mL) was the least that counted as inhibitory (MIC).

Consider `NCC1OC(OC2C(N)CC(N)C(OC3OC4COC(=O)CCCCCCCCCCC(=O)OC4C(N)C3O)C2O)C(N)CC1O` (stereo not drawn) [Compound 30], for which the minimum inhibitory concentration (MIC) came out at 64 µM (≈ 42.4 µg/mL).

Compound `CCCCCCC(=O)OCC1OC(OC2C(N)CC(N)C(OC3OC(CN)C(OC(=O)CCCCCC)CC3N)C2O)C(OC(=O)CCCCCC)C(N)C1OC(=O)CCCCCC` (stereo not drawn) [Compound 31] displayed a minimal inhibitory concentration (MIC) of 32 µM (≈ 29.3 µg/mL).

The compound `NC1CC(O)C(CNC(=O)C[C@H](N)C(=O)O)OC1OC1C(N)CC(N)C(OC2OC(CO)C(O)C(N)C2O)C1O` (stereo partly drawn) [Compound 32] gave a minimal inhibitory concentration (MIC) of more than 64 µM.

With `NC1CC(O)C(CNC(=O)[C@@H](N)CC(=O)O)OC1OC1C(N)CC(N)C(OC2OC(CO)C(O)C(N)C2O)C1O` (stereo partly drawn) [Compound 33], the MIC was more than 64 µM.

Compound `NC[C@H]1O[C@H](O[C@H]2[C@H](O)[C@@H](O[C@H]3O[C@H](CO)[C@@H](O)[C@H](N)[C@H]3O)[C@H](N)C[C@@H]2N)[C@H](N)C[C@@H]1O` [Tobramycin, reference compound] gave a minimal inhibitory concentration (MIC) of 2 µM (≈ 0.935 µg/mL).

Staying with this test, now noted: strain ATCC27853.
For the compound `CCCCCCCCCCCCCCCC(=O)OCC1OC(OC2C(N)CC(N)C(OC3OC(CN)C(O)CC3N)C2O)C(O)C(N)C1O` (stereo not drawn) [Compound 25, Tobramycin 6″-Palmitoyl Ester], the MIC is 16 µM (≈ 11.3 µg/mL).

Neomycin [reference compound] gave a minimum inhibitory concentration (MIC) of 30 µM.

As a reminder, the MIC is the least concentration at which growth counts as inhibited. The low end stands for inhibition by little substance, the high end for a need for much substance.

The values above are taken from US20060128608A1, “Novel chemical compounds and their use” (priority 2002, published 2006).
